Tests used:
Experiment in all cases: Caliper, Mobility shift assay off-chip
TEC (human) = TEC (human) (UniProt P42680)
MAPK7 (human) = MAPK7 (human) (UniProt Q13164)
TNK2 (human) = TNK2 (human) (UniProt Q07912)
MAPK11 (human) = MAPK11 (human) (UniProt Q15759)
IGF1R (human) = IGF1R (human) (UniProt P08069)
MAPK14 (human) = MAPK14 (human) (UniProt Q16539)
FLT3 (human) = FLT3 (human) (UniProt P36888); conditions: compound 0.02 µM
IKBKE (human) = IKBKE (human) (UniProt Q14164)
EPHA5 (human) = EPHA5 (human) (UniProt P54756)
WNK3 (human) = WNK3 (human) (UniProt Q9BYP7)
PASK (human) = PASK (human) (UniProt Q96RG2)
Chain of PASK (human) (Q96RG2 whole entry, looked up): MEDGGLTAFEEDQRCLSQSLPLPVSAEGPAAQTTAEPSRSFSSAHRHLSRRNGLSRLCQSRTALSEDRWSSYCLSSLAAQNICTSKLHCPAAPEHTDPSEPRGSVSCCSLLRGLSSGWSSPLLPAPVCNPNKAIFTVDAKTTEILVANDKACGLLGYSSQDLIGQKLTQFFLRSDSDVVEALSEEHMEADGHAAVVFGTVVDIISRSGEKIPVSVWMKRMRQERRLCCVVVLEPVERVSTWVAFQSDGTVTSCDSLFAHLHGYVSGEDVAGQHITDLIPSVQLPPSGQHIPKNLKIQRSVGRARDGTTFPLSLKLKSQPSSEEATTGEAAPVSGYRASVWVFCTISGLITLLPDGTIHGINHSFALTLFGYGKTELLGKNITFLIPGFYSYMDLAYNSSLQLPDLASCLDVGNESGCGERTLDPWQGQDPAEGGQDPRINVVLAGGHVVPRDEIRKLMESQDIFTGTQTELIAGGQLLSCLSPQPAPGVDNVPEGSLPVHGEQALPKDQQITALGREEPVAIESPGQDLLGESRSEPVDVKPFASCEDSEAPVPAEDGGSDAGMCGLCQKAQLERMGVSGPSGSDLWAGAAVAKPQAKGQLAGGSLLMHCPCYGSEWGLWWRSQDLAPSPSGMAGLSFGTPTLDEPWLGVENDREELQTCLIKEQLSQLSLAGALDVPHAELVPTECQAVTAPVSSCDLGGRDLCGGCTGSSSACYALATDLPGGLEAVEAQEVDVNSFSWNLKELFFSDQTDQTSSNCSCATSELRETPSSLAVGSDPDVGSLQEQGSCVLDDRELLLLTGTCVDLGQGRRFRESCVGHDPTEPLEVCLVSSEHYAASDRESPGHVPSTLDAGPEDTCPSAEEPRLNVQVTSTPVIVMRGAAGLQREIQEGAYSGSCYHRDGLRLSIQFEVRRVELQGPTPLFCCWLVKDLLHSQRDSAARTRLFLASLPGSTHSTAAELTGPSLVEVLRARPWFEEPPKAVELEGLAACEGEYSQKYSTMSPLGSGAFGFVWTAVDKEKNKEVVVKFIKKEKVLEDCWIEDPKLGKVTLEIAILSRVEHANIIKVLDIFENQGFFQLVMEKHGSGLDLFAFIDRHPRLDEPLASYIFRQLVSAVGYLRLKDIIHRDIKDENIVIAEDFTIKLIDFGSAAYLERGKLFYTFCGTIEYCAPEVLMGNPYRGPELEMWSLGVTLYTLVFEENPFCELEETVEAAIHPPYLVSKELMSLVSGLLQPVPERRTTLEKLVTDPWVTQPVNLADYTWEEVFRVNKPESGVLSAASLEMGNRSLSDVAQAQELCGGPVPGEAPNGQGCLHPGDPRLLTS

WNK2 (human) = WNK2 (human) (UniProt Q9Y3S1)
MAPKAPK5 (human) = MAPKAPK5 (human) (UniProt Q8IW41)
CIT (human) = CIT (human) (UniProt O14578)
CAMK2G (human) = CAMK2G (human) (UniProt Q13555)
Chain of CAMK2G (human) (Q13555 whole entry, looked up): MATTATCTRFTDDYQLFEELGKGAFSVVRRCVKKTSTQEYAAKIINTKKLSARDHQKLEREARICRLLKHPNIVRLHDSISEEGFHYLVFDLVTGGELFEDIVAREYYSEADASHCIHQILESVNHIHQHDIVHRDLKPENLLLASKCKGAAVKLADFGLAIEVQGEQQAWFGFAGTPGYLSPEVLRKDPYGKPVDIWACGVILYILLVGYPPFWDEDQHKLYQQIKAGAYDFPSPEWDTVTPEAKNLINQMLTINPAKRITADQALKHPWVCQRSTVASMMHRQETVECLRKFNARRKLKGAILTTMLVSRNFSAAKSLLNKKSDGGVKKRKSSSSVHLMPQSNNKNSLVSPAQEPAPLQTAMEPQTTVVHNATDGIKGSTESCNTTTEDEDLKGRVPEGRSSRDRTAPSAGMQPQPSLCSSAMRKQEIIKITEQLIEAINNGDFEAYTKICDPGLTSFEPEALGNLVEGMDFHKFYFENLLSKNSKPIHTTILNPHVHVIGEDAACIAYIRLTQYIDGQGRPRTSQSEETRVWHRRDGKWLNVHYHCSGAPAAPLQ

TSSK2 (human) = TSSK2 (human) (UniProt Q96PF2)
RPS6KB1 (human) = RPS6KB1 (human) (UniProt P23443)
LATS2 (human) = LATS2 (human) (UniProt Q9NRM7); conditions: compound 0.02 µM
PIM2 (human) = PIM2 (human) (UniProt Q9P1W9)
EPHB1 (human) = EPHB1 (human) (UniProt P54762)
PAK6 (human) = PAK6 (human) (UniProt Q9NQU5)
SRC (human) = SRC (human) (UniProt P12931)
DYRK1B (human) = DYRK1B (human) (UniProt Q9Y463)
Chain of DYRK1B (human) (Q9Y463 whole entry, looked up): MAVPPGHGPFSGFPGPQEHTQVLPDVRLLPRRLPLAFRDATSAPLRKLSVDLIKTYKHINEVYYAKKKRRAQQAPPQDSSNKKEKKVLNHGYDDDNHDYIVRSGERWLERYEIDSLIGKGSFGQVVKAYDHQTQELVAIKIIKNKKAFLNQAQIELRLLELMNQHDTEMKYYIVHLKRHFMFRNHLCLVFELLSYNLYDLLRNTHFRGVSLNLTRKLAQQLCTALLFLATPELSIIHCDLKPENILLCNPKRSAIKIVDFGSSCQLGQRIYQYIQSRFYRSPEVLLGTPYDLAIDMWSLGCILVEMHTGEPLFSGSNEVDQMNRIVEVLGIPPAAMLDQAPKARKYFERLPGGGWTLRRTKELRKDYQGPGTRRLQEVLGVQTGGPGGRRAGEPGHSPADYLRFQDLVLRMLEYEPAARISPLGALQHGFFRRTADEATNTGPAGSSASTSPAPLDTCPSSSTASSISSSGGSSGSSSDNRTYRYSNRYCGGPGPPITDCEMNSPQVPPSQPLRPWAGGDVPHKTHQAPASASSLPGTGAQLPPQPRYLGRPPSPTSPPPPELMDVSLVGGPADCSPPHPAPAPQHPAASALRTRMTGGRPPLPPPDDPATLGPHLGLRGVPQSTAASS

MAPK9 (human) = MAPK9 (human) (UniProt P45984)
PRKD2 (human) = PRKD2 (human) (UniProt Q9BZL6)
STK3 (human) = STK3 (human) (UniProt Q13188)
PRKD1 (human) = PRKD1 (human) (UniProt Q15139)
Chain of PRKD1 (human) (Q15139 whole entry, looked up): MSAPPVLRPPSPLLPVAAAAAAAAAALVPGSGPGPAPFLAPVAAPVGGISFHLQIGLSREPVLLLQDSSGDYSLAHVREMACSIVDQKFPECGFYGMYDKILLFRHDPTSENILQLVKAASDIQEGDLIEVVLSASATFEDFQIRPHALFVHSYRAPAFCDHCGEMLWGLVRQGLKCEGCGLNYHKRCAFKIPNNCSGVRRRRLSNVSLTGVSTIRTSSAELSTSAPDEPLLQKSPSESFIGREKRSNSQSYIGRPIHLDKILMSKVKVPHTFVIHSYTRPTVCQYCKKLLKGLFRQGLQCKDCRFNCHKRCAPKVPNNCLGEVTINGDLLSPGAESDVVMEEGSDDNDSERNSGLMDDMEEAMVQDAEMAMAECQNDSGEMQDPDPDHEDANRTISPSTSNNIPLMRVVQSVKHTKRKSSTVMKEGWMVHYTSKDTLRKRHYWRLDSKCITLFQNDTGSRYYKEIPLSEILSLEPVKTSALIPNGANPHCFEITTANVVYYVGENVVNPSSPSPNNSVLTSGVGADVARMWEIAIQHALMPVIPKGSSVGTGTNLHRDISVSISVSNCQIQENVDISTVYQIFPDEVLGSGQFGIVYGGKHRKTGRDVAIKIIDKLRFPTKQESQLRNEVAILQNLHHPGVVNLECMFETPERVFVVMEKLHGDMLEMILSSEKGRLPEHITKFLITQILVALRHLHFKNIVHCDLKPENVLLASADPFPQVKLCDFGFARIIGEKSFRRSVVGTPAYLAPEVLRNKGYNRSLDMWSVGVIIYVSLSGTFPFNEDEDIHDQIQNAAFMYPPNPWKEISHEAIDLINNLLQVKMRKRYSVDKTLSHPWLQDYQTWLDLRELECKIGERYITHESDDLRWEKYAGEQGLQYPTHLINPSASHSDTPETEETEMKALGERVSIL

MAPK8 (human) = MAPK8 (human) (UniProt P45983)
IRAK1 (human) = IRAK1 (human) (UniProt P51617)
CAMK1 (human) = CAMK1 (human) (UniProt Q14012)
SYK (human) = SYK (human) (UniProt P43405)
ERBB2 (human) = ERBB2 (human) (UniProt P04626)

Chain of IKBKE (human) (Q14164 whole entry, looked up): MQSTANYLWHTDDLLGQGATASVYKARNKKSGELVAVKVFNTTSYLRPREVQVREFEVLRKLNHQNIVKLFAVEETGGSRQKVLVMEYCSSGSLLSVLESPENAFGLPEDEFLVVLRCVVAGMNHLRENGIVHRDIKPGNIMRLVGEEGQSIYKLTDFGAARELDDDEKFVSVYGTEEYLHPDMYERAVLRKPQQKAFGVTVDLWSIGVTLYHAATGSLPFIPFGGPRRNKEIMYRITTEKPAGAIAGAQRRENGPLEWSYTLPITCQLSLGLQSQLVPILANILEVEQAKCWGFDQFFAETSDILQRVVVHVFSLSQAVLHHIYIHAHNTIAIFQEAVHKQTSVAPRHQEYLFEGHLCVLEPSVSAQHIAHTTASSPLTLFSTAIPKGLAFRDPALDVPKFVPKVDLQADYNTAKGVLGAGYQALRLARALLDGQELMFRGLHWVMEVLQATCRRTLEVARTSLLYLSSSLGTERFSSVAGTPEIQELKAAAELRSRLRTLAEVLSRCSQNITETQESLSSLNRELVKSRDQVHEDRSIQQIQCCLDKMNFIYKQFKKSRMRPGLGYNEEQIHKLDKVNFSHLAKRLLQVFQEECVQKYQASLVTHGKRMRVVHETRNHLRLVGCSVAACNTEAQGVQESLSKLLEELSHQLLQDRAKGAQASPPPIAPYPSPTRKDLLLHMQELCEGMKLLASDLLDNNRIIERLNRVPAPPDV
Chain of TEC (human) (P42680 whole entry, looked up): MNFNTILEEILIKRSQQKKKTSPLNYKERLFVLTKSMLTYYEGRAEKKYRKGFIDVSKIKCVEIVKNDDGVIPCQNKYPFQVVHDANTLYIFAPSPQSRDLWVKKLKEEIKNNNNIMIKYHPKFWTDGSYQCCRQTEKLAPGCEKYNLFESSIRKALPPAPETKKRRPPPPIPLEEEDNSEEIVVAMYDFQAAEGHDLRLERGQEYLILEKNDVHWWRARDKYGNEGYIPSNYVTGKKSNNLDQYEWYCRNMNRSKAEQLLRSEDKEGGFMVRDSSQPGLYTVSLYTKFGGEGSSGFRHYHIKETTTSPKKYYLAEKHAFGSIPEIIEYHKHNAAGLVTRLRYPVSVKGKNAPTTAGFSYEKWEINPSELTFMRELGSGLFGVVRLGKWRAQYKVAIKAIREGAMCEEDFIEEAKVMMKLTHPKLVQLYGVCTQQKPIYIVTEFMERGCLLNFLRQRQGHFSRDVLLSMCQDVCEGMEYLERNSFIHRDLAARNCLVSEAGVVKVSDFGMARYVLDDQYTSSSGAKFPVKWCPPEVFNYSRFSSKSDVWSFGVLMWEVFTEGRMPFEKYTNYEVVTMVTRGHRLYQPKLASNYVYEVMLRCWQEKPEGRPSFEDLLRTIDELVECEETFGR

CNC(=O)c1ccccc1Sc1ccc2c(/C=C/c3ccccn3)n[nH]c2c1
inhibition (TEC (human); compound 0.001 µM): 3.2%
inhibition (TEC (human); compound 0.02 µM): -3.2%
inhibition (MAPK7 (human); compound 0.001 µM): -9.5%
inhibition (MAPK7 (human); compound 0.02 µM): -9.5%
inhibition (TNK2 (human); compound 0.001 µM): -7.8%
inhibition (TNK2 (human); compound 0.02 µM): -8.8%
inhibition (MAPK11 (human); compound 0.001 µM): -2.8%
inhibition (MAPK11 (human); compound 0.02 µM): -3.8%
inhibition (IGF1R (human); compound 0.001 µM): 0.7%
inhibition (IGF1R (human); compound 0.02 µM): -1.8%
inhibition (MAPK14 (human); compound 0.001 µM): -8%
inhibition (MAPK14 (human); compound 0.02 µM): -6.9%
inhibition (FLT3 (human)): 14.8%
inhibition (IKBKE (human); compound 0.001 µM): -6.5%
inhibition (IKBKE (human); compound 0.02 µM): -5.1%
inhibition (EPHA5 (human); compound 0.001 µM): -5.3%
inhibition (EPHA5 (human); compound 0.02 µM): -3.9%
inhibition (WNK3 (human); compound 0.001 µM): 0.8%
inhibition (WNK3 (human); compound 0.02 µM): -1.4%
inhibition (PASK (human); compound 0.001 µM): -6.3%
inhibition (PASK (human); compound 0.02 µM): -0.6%
inhibition (WNK2 (human); compound 0.001 µM): 1.8%
inhibition (WNK2 (human); compound 0.02 µM): -0.3%
inhibition (MAPKAPK5 (human); compound 0.001 µM): -1.5%
inhibition (MAPKAPK5 (human); compound 0.02 µM): 1.6%
inhibition (CIT (human); compound 0.001 µM): -2.2%
inhibition (CIT (human); compound 0.02 µM): -4.4%
inhibition (CAMK2G (human); compound 0.001 µM): 0.2%
inhibition (CAMK2G (human); compound 0.02 µM): -1.1%
inhibition (TSSK2 (human); compound 0.001 µM): -5.1%
inhibition (TSSK2 (human); compound 0.02 µM): -5.4%
inhibition (RPS6KB1 (human); compound 0.001 µM): 6.6%
inhibition (RPS6KB1 (human); compound 0.02 µM): 10.6%
inhibition (LATS2 (human)): -2.3%
inhibition (PIM2 (human); compound 0.001 µM): 4.4%
inhibition (PIM2 (human); compound 0.02 µM): 2.5%
inhibition (EPHB1 (human); compound 0.001 µM): -9.1%
inhibition (EPHB1 (human); compound 0.02 µM): -6.5%
inhibition (PAK6 (human); compound 0.001 µM): -7%
inhibition (PAK6 (human); compound 0.02 µM): 0.1%
inhibition (SRC (human); compound 0.001 µM): 1.3%
inhibition (SRC (human); compound 0.02 µM): -0.2%
inhibition (DYRK1B (human); compound 0.001 µM): 3.6%
inhibition (DYRK1B (human); compound 0.02 µM): -0.4%
inhibition (MAPK9 (human); compound 0.001 µM): -9.7%
inhibition (MAPK9 (human); compound 0.02 µM): -9.3%
inhibition (PRKD2 (human); compound 0.001 µM): -4.8%
inhibition (PRKD2 (human); compound 0.02 µM): -2.1%
inhibition (STK3 (human); compound 0.001 µM): -3.8%
inhibition (STK3 (human); compound 0.02 µM): -2.3%
inhibition (PRKD1 (human); compound 0.001 µM): -2.7%
inhibition (PRKD1 (human); compound 0.02 µM): -2.2%
inhibition (MAPK8 (human); compound 0.001 µM): -3.3%
inhibition (MAPK8 (human); compound 0.02 µM): -3.5%
inhibition (IRAK1 (human); compound 0.001 µM): -12.5%
inhibition (IRAK1 (human); compound 0.02 µM): 4.3%
inhibition (CAMK1 (human); compound 0.001 µM): -3.4%
inhibition (CAMK1 (human); compound 0.02 µM): -4.5%
inhibition (SYK (human); compound 0.001 µM): -9.8%
inhibition (SYK (human); compound 0.02 µM): -8.9%
inhibition (ERBB2 (human); compound 0.001 µM): -1.2%
inhibition (ERBB2 (human); compound 0.02 µM): -1.4%
